Legend:
DCAF16 [1] = biological target: T1, DCAF16 (Homo sapiens, UniProt O60885+Q9NXF7); assay: intact protein MS; TR-FRET; type: binding
T1 construct: full length, in complex with DDB1ΔB; with BRD4 BD2 (template), DDB1ΔB

DCAF16 [2] = biological target: T1, DCAF16; assay: intact protein MS ([…] adduct alone, […] with BRD4BD2; none with C58S); TR-FRET; type: binding

| Structure (SMILES) | intact protein MS; TR-FRET (DCAF16 [1]) | intact protein MS (8% adduct alone, 50% with BRD4BD2; none with C58S); TR-FRET (DCAF16 [2]) |
| --- | --- | --- |
| C=CC(=O)Nc1ccc(C2=N[C@@H](CC(=O)OC(C)(C)C)c3nnc(C)n3-c3sc(C)c(C)c32)cc1 [compound 3, MMH1] | DCAF16 intact mass spectrometry experiments on MMH1 and MMH2 and found similar template-assisted covalent modifications | – |
| Cc1sc2c(c1C)C(c1ccc(/C=C/C=O)cc1)=N[C@@H](CC(=O)OC(C)(C)C)c1nnc(C)n1-2 [compound 2, TMX1] | – | By intact mass spectrometry, the DCAF16 C58S mutant completely eliminated DCAF16–TMX1 adduct formation |

Source: article PMC11582070, “Template-assisted covalent modification underlies activity of covalent molecular glues” (Nature Chemical Biology, 2023)
